This assay concerns P388 leukemia ip, CD2F1 mice, survival T/C. The assay can be described thus: NCI In Vivo Anticancer Drug Screen. Data for tumor model P388 Leukemia (intraperitoneal) in CD2F1 (CDF1) mice. The note with it: endpoint: median survival time, higher = longer survival. Put shortly: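 Mice carrying the transplanted tumor received test compound or vehicle. Survival was recorded in each group, and the value is the treated-group measurement divided by that of the vehicle-treated control group.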

[1] abbreviates: dose: 25.0 mg/kg/injection, schedule: Q01DX009 (ip), vehicle: saline with Tween-80.
[2] abbreviates: dose: 50.0 mg/kg/injection, schedule: Q01DX009 (ip), vehicle: saline with Tween-80.
Setting [3] is: dose: 100.0 mg/kg/injection, schedule: Q01DX009 (ip), vehicle: saline with Tween-80.
Where [4] appears, read: dose: 100.0 mg/kg/injection, schedule: Q01DX001 (ip), vehicle: saline with Tween-80.
The mark [5] stands for this setting: dose: 200.0 mg/kg/injection, schedule: Q01DX001 (ip), vehicle: saline with Tween-80.
The mark [6] stands for this setting: dose: 400.0 mg/kg/injection, schedule: Q01DX001 (ip), vehicle: saline with Tween-80.
[7] abbreviates: dose: 50.0 mg/kg/injection, schedule: Q01DX005 (ip), vehicle: Klucel (hydroxypropylcellulose) (HPC).
Where [8] appears, read: dose: 100.0 mg/kg/injection, schedule: Q01DX005 (ip), vehicle: Klucel (hydroxypropylcellulose) (HPC).
Setting [9] is: dose: 200.0 mg/kg/injection, schedule: Q01DX005 (ip), vehicle: Klucel (hydroxypropylcellulose) (HPC).
Setting [10] is: dose: 50.0 mg/kg/injection, schedule: Q01DX009 (ip), vehicle: Klucel (hydroxypropylcellulose) (HPC).
Setting [11] is: dose: 100.0 mg/kg/injection, schedule: Q01DX009 (ip), vehicle: Klucel (hydroxypropylcellulose) (HPC).
The mark [12] stands for this setting: dose: 200.0 mg/kg/injection, schedule: Q01DX009 (ip), vehicle: saline with Tween-80.
Setting [13] is: dose: 50.0 mg/kg/injection, schedule: Q01DX009 (ip), vehicle: saline.
Where [14] appears, read: dose: 100.0 mg/kg/injection, schedule: Q01DX009 (ip), vehicle: saline.
The mark [15] stands for this setting: dose: 60.0 mg/kg/injection, schedule: Q01DX005 (ip), vehicle: saline with Tween-80.
Where [16] appears, read: dose: 120.0 mg/kg/injection, schedule: Q01DX005 (ip), vehicle: saline with Tween-80.

“And” between values parts separate entries of the source, which are not always exact repeats. Equal entries are not always repeated. Toxic doses and inconclusive results are not listed.

The values below come from PubChem BioAssay AID330 (DTP/NCI, 2004).

For `CN(CCO)C1=C(N2CC2)C(=O)C(N(C)CCO)=C(N2CC2)C1=O`, the T/C runs as follows: (dose: 0.4 mg/kg/injection, schedule: Q01DX009 (ip), vehicle: saline) 175 % of control and 194 % of control; (dose: 0.8 mg/kg/injection, schedule: Q01DX009 (ip), vehicle: saline) 194 % of control and 245 % of control; (dose: 1.6 mg/kg/injection, schedule: Q01DX009 (ip), vehicle: saline) 119 % of control and 262 % of control.
As to `CCCC(CCC)NCC(O)c1cc(-c2ccc(C(F)(F)F)cc2)nc(C(F)(F)F)c1` (configuration not stated), the T/C is 102 % of control (dose: 12.5 mg/kg/injection, schedule: Q01DX009 (ip), vehicle: saline with Tween-80); 107 % of control under setting [1]; 100 % of control and 91 % of control under setting [2].
As to `COc1ccc(-c2coc3cc(OC4OC(COC5OCC(O)C(O)C5O)C(O)C(O)C4O)cc(O)c3c2=O)cc1` (configuration not stated), the T/C under setting [1] was 103 % of control, the T/C under setting [2] is 98 % of control and the T/C under setting [3] is 102 % of control.
On to `O=c1c(N=Nc2ccc(Br)cc2)c(O)n(-c2ccc(Cl)cc2)c(=S)n1-c1ccc(Br)cc1`, for which the T/C runs as follows: under setting [4], 96 % of control; under setting [5], 95 % of control; under setting [6], 89 % of control.
For the compound `CCCCCCc1cc(C(=O)NN)c2ccccc2n1`, the T/C by setting is: under setting [7], 102 % of control; under setting [8], 99 % of control; under setting [9], 96 % of control.
Consider `CC1=CC(=O)c2c(O)cccc2C1=O`, for which the T/C was 108 % of control (dose: 2.0 mg/kg/injection, schedule: Q01DX009 (ip), vehicle: Klucel (hydroxypropylcellulose) (HPC)); 110 % of control (dose: 2.0 mg/kg/injection, schedule: Q01DX009 (ip), vehicle: saline with Tween-80); 113 % of control and 116 % of control (dose: 4.0 mg/kg/injection, schedule: Q01DX009 (ip), vehicle: Klucel (hydroxypropylcellulose) (HPC)); 114 % of control (dose: 4.0 mg/kg/injection, schedule: Q01DX009 (ip), vehicle: saline with Tween-80); 122 % of control (dose: 8.0 mg/kg/injection, schedule: Q01DX009 (ip), vehicle: Klucel (hydroxypropylcellulose) (HPC)).
`Cc1ccc(NC(=O)NCCCN2CCOCC2)cc1NC(=O)NCCCN1CCOCC1`: the T/C runs as follows: under setting [10], 104 % of control; under setting [11], 100 % of control; (dose: 200.0 mg/kg/injection, schedule: Q01DX009 (ip), vehicle: Klucel (hydroxypropylcellulose) (HPC)) 96 % of control.
`O=NNc1ccc(Oc2ccc(NN=O)cc2)cc1`: the T/C was 96 % of control (dose: 3.12 mg/kg/injection, schedule: Q01DX009 (ip), vehicle: water); 96 % of control (dose: 6.25 mg/kg/injection, schedule: Q01DX009 (ip), vehicle: water); 92 % of control (dose: 12.5 mg/kg/injection, schedule: Q01DX009 (ip), vehicle: water); 100 % of control and 93 % of control (dose: 25.0 mg/kg/injection, schedule: Q01DX009 (ip), vehicle: water); 100 % of control and 93 % of control (dose: 50.0 mg/kg/injection, schedule: Q01DX009 (ip), vehicle: water); 91 % of control (dose: 100.0 mg/kg/injection, schedule: Q01DX009 (ip), vehicle: water). Moreover, for the setting “dose: 200.0 mg/kg/injection, schedule: Q01DX009 (ip), vehicle: water”, the T/C was 88 % of control.
For `CN(CC(=O)O)N=Nc1ccc(C(N)=O)cc1`, the T/C by setting is: under setting [7], 100 % of control; under setting [8], 96 % of control; under setting [9], 100 % of control.
With `COc1cc2cccc(OC)c(=O)c2c(O)c1OC`, the T/C is 86 % of control under setting [7]; 99 % of control (dose: 50.0 mg/kg/injection, schedule: Q01DX005 (ip), vehicle: saline with Tween-80); 88 % of control under setting [8]; 95 % of control (dose: 100.0 mg/kg/injection, schedule: Q01DX005 (ip), vehicle: saline with Tween-80); 88 % of control under setting [9]; 91 % of control (dose: 200.0 mg/kg/injection, schedule: Q01DX005 (ip), vehicle: saline with Tween-80).
Regarding `[Cl][Pd][Cl].[NH-]C(C(=O)OCc1ccccc1)c1ccccc1.[NH-]C(C(=O)OCc1ccccc1)c1ccccc1` (configuration not stated), the T/C reads like this: (dose: 6.25 mg/kg/injection, schedule: Q04DX003 (ip), vehicle: saline) 100 % of control; (dose: 12.5 mg/kg/injection, schedule: Q04DX003 (ip), vehicle: saline) 100 % of control; (dose: 25.0 mg/kg/injection, schedule: Q04DX003 (ip), vehicle: saline) 97 % of control; (dose: 100.0 mg/kg/injection, schedule: Q04DX003 (ip), vehicle: saline) 108 % of control.
Regarding `Cc1cc(C)c2c(=O)n(C)c(=O)n(C)c2n1`, the T/C is 89 % of control under setting [2], 94 % of control under setting [3] and 103 % of control under setting [12].
Take `CCCCCCCC(=O)Nc1ccccc1CC`: the T/C is 100 % of control (dose: 100.0 mg/kg/injection, schedule: Q04DX003 (ip), vehicle: other); 100 % of control (dose: 200.0 mg/kg/injection, schedule: Q04DX003 (ip), vehicle: other); 95 % of control (dose: 400.0 mg/kg/injection, schedule: Q04DX003 (ip), vehicle: other).
Take `COc1cc(C(=O)O)on1`: the T/C by setting is: (dose: 25.0 mg/kg/injection, schedule: Q01DX009 (ip), vehicle: saline) 103 % of control; under setting [13], 99 % of control; under setting [14], 89 % of control and 96 % of control.
`O=[N+]([O-])c1ccc(NCc2ccccc2)nc1`: the T/C was 107 % of control under setting [2], 117 % of control under setting [3] and 112 % of control under setting [12].
Regarding `CCOC(=O)C1C/C(=N\O)c2ccc(OC)c(OC)c2C1` (configuration not stated), the T/C by setting is: (dose: 25.0 mg/kg/injection, schedule: Q01DX009 (ip), vehicle: other) 101 % of control; (dose: 50.0 mg/kg/injection, schedule: Q01DX009 (ip), vehicle: other) 91 % of control; (dose: 100.0 mg/kg/injection, schedule: Q01DX009 (ip), vehicle: other) 93 % of control; (dose: 200.0 mg/kg/injection, schedule: Q01DX009 (ip), vehicle: other) 97 % of control; (dose: 400.0 mg/kg/injection, schedule: Q01DX009 (ip), vehicle: other) 100 % of control.
As for `CN(C)CCC(=O)c1ccc(Cl)c(Cl)c1`, the T/C reads like this: under setting [10], 107 % of control; under setting [13], 108 % of control; under setting [11], 109 % of control; under setting [14], 110 % of control; (dose: 200.0 mg/kg/injection, schedule: Q01DX009 (ip), vehicle: saline) 109 % of control.
Turning to `COC(=O)C(=O)C(C(=O)c1ccc(F)cc1)c1nc2n(c1O)C(=N)N=N2` (configuration not stated), the T/C runs as follows: under setting [15], 102 % of control; under setting [16], 86 % of control.
In the case of `CC1(C)COC(=O)/C1=C/C#N`, the T/C reads like this: under setting [7], 106 % of control; under setting [8], 98 % of control; under setting [9], 90 % of control.
In the case of `CCCn1c(Cl)c(/C=N\Nc2ccc([N+](=O)[O-])cc2)c2ccccc21`, the T/C is, setting by setting: under setting [4], 103 % of control; under setting [5], 95 % of control; under setting [6], 95 % of control.
Regarding `O=[N+]([O-])C1C2C=CC(C2)C1C(Cl)(Cl)Cl` (configuration not stated), the T/C was 101 % of control (dose: 0.19 mg/kg/injection, schedule: Q01DX009 (ip), vehicle: saline with Tween-80); 100 % of control (dose: 0.39 mg/kg/injection, schedule: Q01DX009 (ip), vehicle: saline with Tween-80); 98 % of control and 99 % of control (dose: 0.78 mg/kg/injection, schedule: Q01DX009 (ip), vehicle: saline with Tween-80).
On to `O=C1C(=C(O)c2ccccc2)C(=O)c2ccccc21`, for which the T/C by setting is: (dose: 15.0 mg/kg/injection, schedule: Q01DX005 (ip), vehicle: saline with Tween-80) 99 % of control; (dose: 30.0 mg/kg/injection, schedule: Q01DX005 (ip), vehicle: saline with Tween-80) 105 % of control; under setting [15], 105 % of control and 109 % of control; under setting [16], 104 % of control.
As to `O=[N+]([O-])c1ccc(CCCl)cc1`, the T/C by setting is: under setting [2], 99 % of control; under setting [3], 88 % of control; under setting [12], 90 % of control.
With `c1ccc2c(C3N4CCCN3CC4)c[nH]c2c1` (configuration not stated), the T/C under setting [1] is 103 % of control and 104 % of control and 119 % of control; the T/C under setting [2] is 98 % of control and 106 % of control and 118 % of control; the T/C under setting [3] was 103 % of control and 114 % of control and 122 % of control; the T/C under setting [12] was 105 % of control and 95 % of control.
